Laboratory results from patent publication US20070258970A1, “Methods for Inhibiting Hiv and Other Viral Infections by Modulating Ceramide Metabolism” (priority 2003, published 2007).

Assays:
HIV-1 [1] = format: cell-based
VSV pseudotyped HIV-1 = format: cell-based
ceramide [2] = experiment: Ceramide quantitation by [3H]sphingosine incorporation in HeLa-derived target cells; format: cell-based
cells = experiment: Apoptotic effects on the cells by annexin 5 staining / toxicity; format: cell-based; settings: at the low concentrations that inhibit HIV-1
HIV-1 [3] = experiment: HIV-1 infection of primary monocyte derived macrophages; format: cell-based; settings: low uM concentrations, pretreated 2 days
CD4 = experiment: Flow cytometry of cell surface CD4 on TMZ cells; format: cell-based
Experimental: (§1) TMZ cells, harvested with trypsin-EDTA in PBS, were centrifuged at 450×g and resuspended at 10^6 cells/ml in PBS-5% FBS-5% normal mouse serum. After incubation for 15 min at room temperature, the cells were washed twice in PBS-0.1% bovine serum albumin and resuspended in 100 μl of PBS-5% FBS-5% normal mouse serum. 20 μl of Phycoerythrin (PE)-conjugated mouse immunoglobulin G (IgG) anti-CD4, PE-conjugated mouse IgG anti-CXCR4, or PE-conjugated mouse IgG anti-CCR5, from Becton Dickenson (San Jose, Calif.) was then added to each sample. Cells were incubated at 4° C. for 1 hour and washed twice in PBS-0.1% BSA. Samples were fixed in PBS-1% paraformaldehyde and resuspended in 1 ml of PBS to be read by a FACScalibur instrument (Becton Dickinson, San Jose, Calif.) at 10,000 events/sample with respect to unlabeled cells.
(§2) Increasing ceramide concentrations is thought to perturb membrane properties due to the hydrophobic nature of this lipid and the tendency to self aggregate. The possible consequences of membrane altering properties on the cell surface expression of the main HIV receptors, CD4, X4 and R5, was investigated. […] CD4 expression decreases in a dose dependent manner from a control level of 100% to levels of 70%, 57% and 27% following treatment with 2, 5 and 10 μM of a 4-HPR compound respectively.

CCR5 = experiment: Flow cytometry of cell surface CCR5 on TMZ cells; format: cell-based
Experimental: as §1, §2

CXCR4 = experiment: Flow cytometry of cell surface CXCR4 on TMZ cells; format: cell-based; settings: 2 μM
Experimental: as §1, §2

ceramide [4] = experiment: Ceramide level in monocyte derived macrophages; settings: 5 uM
Sendai virus = experiment: R18 fluorescence dequenching viral fusion assay; settings: increasing concentrations, 37° C., pH7; FIG. 9
Experimental: To further probe how ceramide accumulation might inhibit viral fusion, viral fusion was monitored using a well-established octadecyl rhodamine (R18) fluorescence dequenching (R18-fdq) assay. In this assay system R18-labeled Sendai virus was incubated with control or a 4-HPR compound treated cells for 30 min at 4° C. to allow for virus binding. Small aliquots of virus-cell complexes were added to a stirred cuvette at 37° C. containing 2 ml buffer at pH7. Fluorescence increases were recorded with a 1 sec time resolution in a SLM8000 spectrofluorimeter (SLMInstruments, Urbana, Ill.). […] This increase in fluorescence reflects dequenching of R18 upon the merging of viral and cell membranes.

HIV-1 gp160 (HXB2) = experiment: Cell-cell fusion assay (HeLa cells expressing HIV-1 gp160 with TMZ target cells, luciferase); settings: pretreated target cells, alone or combined; FIG. 8B
Experimental: Target TMZ cells were plated at 0.75×10^4 cells per well in a 96 well plate and treated with a 4-BPR compound for 48 hours with 5% CO2 in a humidified incubator. HeLa cells expressing HUV-1 gp160 (HXB2) in addition to gag, tat, rev and nef were then cocultured with target cells containing the tat inducible luciferase reporter cassette. Envelope and target cells were cocultivated at 37° C. for 7 hours. Luciferase activity was then measured using a Promega (Madison, Wis.) luciferase assay system kit. Briefly, the supernatants were removed and the cells were lysed with Steady Glo luciferase assay system. The light intensity of each well was measured on a Reporter luminometer. Mock-infected cells were used to determine background luminescence. All infectivity assays were performed in duplicate.
Briefly, HeLa cells expressing HIV-1 gp160 (HXB2) in addition to gag, tat, rev and nef were cocultured with CD4 positive target cells containing the tat inducible luciferase reporter cassette. […] Envelope and target cells were cocultivated at 37° C. for 7 hours following which the cells were lysed and luciferase activity quantitated.

CC1=C(/C=C/C(C)=C/C=C/C(C)=C/C(=O)Nc2ccc(O)cc2)C(C)(C)CCC1 [4-HPR compound, N-(4-hydroxyphenyl)retinamide]
inhibition of HIV-1 isolates (HIV-1 [1]; X4 (NL4-3, MN), R5 (Bal, JRCSF) and primary isolates, FIG. 3b): dose-dependent inhibition | infectivity of VSV pseudotyped HIV-1 (VSV pseudotyped HIV-1): not impaired | increase in ceramide (ceramide [2]; HeLa cells, 5 uM): 1.7 fold | toxicity (cells): minimal toxicity | HIV-1 infection of macrophages, CCR5 tropic isolate (BaL) (HIV-1 [3]; FIG. 6A): Infection inhibition was observed | HIV-1 infection of macrophages, primary isolate (HIV-1 [3]; FIG. 6B): Infection inhibition was observed | CD4 expression (control level 100%) (CD4; 2 μM): 70% | CD4 expression (control level 100%) (CD4; 5 μM): 57% | CD4 expression (control level 100%) (CD4; 10 μM): 27% | CCR5 expression (CCR5; 2 μM): 60% | CCR5 expression (CCR5; 5 μM): 30% | CCR5 expression (CCR5; 10 μM): 7% | CXCR4 expression (CXCR4): 18% | increase in ceramide (ceramide [4]): 1.12 fold | inhibition of Sendai virus fusion (R18 fluorescence dequenching) (Sendai virus): dose dependent inhibition | inhibition of fusion (HIV-1 gp160 (HXB2)): 20%

CCCCCCCCCCCCC/C=C/[C@@H](O)[C@H](CO)NC(=O)CCCCCCCCCCCCCCC [C16, C16 ceramide]
inhibition of HIV infection (HIV-1 [1]; pretreatment with 1 μM lipid for 10 minutes at 37° C., FIG. 5): approximately 60%

CCCCCCCCCCCCCCCC(=O)NC(CN1CCOCC1)C(O)c1ccccc1 (centres unmarked) [PPMP, 1-phenyl-2-hexadecanoylamino-3-morpholino-1-propanol]
inhibition of fusion (HIV-1 gp160 (HXB2)): ineffective

sphingomyelinase
inhibition of HIV-1 infection (HIV-1 [1]): 60-70% | ceramide levels following enzymatic activity (ceramide [2]; sphingomyelinase pretreated cells): increased
